From PubChem BioAssay AID1918996 (Molecular Pharmacology Branch, DTP, NCI, 2023)

Test system: 349418-098-R-PDC complex spheroid growth
Assay: Anticancer human tumor 349418-098-R-PDC patient-derived lung adenocarcinoma cell line growth inhibition [AhR]
Settings: for IC50: curve of first compound; for viability, T/C: stronger effect = lower value
How it was run: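 Complex tumor spheroids co-cultured with HUVEC and human MSC stroma; AhR antagonists tested in combination with standard-of-care and investigational agents. Top concentration at or near clinical Cmax (else 10 microM), half-log dilutions; growth expressed as percent test/control.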

[1] = second compound 0.1 µM, first compound 0.0316 µM
[2] = second compound 0.1 µM, first compound 0.1 µM
[3] = second compound 0.1 µM, first compound 0.316 µM
[4] = second compound 0.1 µM, first compound 1 µM
[5] = second compound 0.1 µM, first compound 3.16 µM
[6] = second compound 0.1 µM, first compound 10 µM
[7] = second compound 0.316 µM, first compound 0.0316 µM
[8] = second compound 0.316 µM, first compound 0.1 µM
[9] = second compound 0.316 µM, first compound 0.316 µM
[10] = second compound 0.316 µM, first compound 1 µM
[11] = second compound 0.316 µM, first compound 3.16 µM
[12] = second compound 0.316 µM, first compound 10 µM
[13] = second compound 1 µM, first compound 0.0316 µM
[14] = second compound 1 µM, first compound 0.1 µM
[15] = second compound 1 µM, first compound 0.316 µM
[16] = second compound 1 µM, first compound 1 µM
[17] = second compound 1 µM, first compound 3.16 µM
[18] = second compound 1 µM, first compound 10 µM
[19] = second compound 3.16 µM, first compound 0.0316 µM
[20] = second compound 3.16 µM, first compound 0.1 µM
[21] = second compound 3.16 µM, first compound 0.316 µM
[22] = second compound 3.16 µM, first compound 1 µM
[23] = second compound 3.16 µM, first compound 3.16 µM
[24] = second compound 3.16 µM, first compound 10 µM
[25] = second compound 10 µM, first compound 0.0316 µM
[26] = second compound 10 µM, first compound 0.1 µM
[27] = second compound 10 µM, first compound 0.316 µM
[28] = second compound 10 µM, first compound 1 µM
[29] = second compound 10 µM, first compound 3.16 µM
[30] = second compound 10 µM, first compound 10 µM
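Note: spheroids exposed to agents for seven days before luminescence viability read.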
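Throughout, for viability, T/C: spheroids also contain HUVEC endothelial cells and human MSC stroma.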

IC50 (second compound 0.1 µM) [nM]	IC50 (second compound 0.316 µM) [nM]	IC50 (second compound 1 µM) [nM]	IC50 (second compound 3.16 µM) [nM]	IC50 (second compound 10 µM) [nM]	SMILES	viability, T/C [1] [%]	viability, T/C [2] [%]	viability, T/C [3] [%]	viability, T/C [4] [%]	viability, T/C [5] [%]	viability, T/C [6] [%]	viability, T/C [7] [%]	viability, T/C [8] [%]	viability, T/C [9] [%]	viability, T/C [10] [%]	viability, T/C [11] [%]	viability, T/C [12] [%]	viability, T/C [13] [%]	viability, T/C [14] [%]	viability, T/C [15] [%]	also measured
612	759	517	< 31.6	< 31.6	Nc1ccccc1NC(=O)c1ccc(CNC(=O)OCc2cccnc2)cc1 + Cc1cncc(-c2nc(NCCc3c[nH]c4ccccc34)c3ncn(C(C)C)c3n2)c1	79.9	69.6	58.4	46.7	19.9	4.89	69.7	73.5	57.3	47.7	25.6	4.93	72.6	67.5	54.9	viability, T/C [16]: 43.2%; viability, T/C [17]: 20.1%; viability, T/C [18]: 4.95%; viability, T/C [19]: 12.8%; viability, T/C [20]: 15.7%; viability, T/C [21]: 9.2%; viability, T/C [22]: 12.1%; viability, T/C [23]: 7.68%; viability, T/C [24]: 2.59%; viability, T/C [25]: 1%; viability, T/C [26]: 1.06%; viability, T/C [27]: 0.67%; viability, T/C [28]: 0.76%; viability, T/C [29]: 0.51%; viability, T/C [30]: 0.34%
682	524	598	< 31.6	< 31.6	O=C(C=Cc1cccc(S(=O)(=O)Nc2ccccc2)c1)NO + Cc1cncc(-c2nc(NCCc3c[nH]c4ccccc34)c3ncn(C(C)C)c3n2)c1	90.6	79.1	67.8	43.2	13.2	1.82	85.2	68.9	59.3	43.5	11.3	1.83	76.4	75.8	61.1	viability, T/C [16]: 41.3%; viability, T/C [17]: 10.3%; viability, T/C [18]: 1.94%; viability, T/C [19]: 30.8%; viability, T/C [20]: 34.8%; viability, T/C [21]: 37.9%; viability, T/C [22]: 22.7%; viability, T/C [23]: 7.91%; viability, T/C [24]: 1.33%; viability, T/C [25]: 3.17%; viability, T/C [26]: 3.68%; viability, T/C [27]: 2.97%; viability, T/C [28]: 1.98%; viability, T/C [29]: 1.53%; viability, T/C [30]: 0.75%
> 10000	> 10000	> 10000	< 31.6	< 31.6	O=C(c1cc(Cc2n[nH]c(=O)c3ccccc23)ccc1F)N1CCN(C(=O)C2CC2)CC1 + Cc1cncc(-c2nc(NCCc3c[nH]c4ccccc34)c3ncn(C(C)C)c3n2)c1	75.7	91.6	98.3	89.9	75.2	58.8	94.8	102	99.4	82.3	74.7	64.4	81.7	86.7	84.1	viability, T/C [16]: 67.2%; viability, T/C [17]: 75.5%; viability, T/C [18]: 65.1%; viability, T/C [19]: 17.7%; viability, T/C [20]: 19%; viability, T/C [21]: 14.9%; viability, T/C [22]: 12.7%; viability, T/C [23]: 15%; viability, T/C [24]: 13.9%; viability, T/C [25]: 1.12%; viability, T/C [26]: 1.3%; viability, T/C [27]: 0.99%; viability, T/C [28]: 1.23%; viability, T/C [29]: 1.33%; viability, T/C [30]: 1.37%
